How the values were obtained:
[1] = target: hAChE (Homo sapiens, UniProt P22303); test: Kinetic profiling of AChE inhibition; assay type: biochemical; conditions: Lineweaver–Burk plot
[2] = system: SH − SY5Y cells; conditions: for toxicity towards SHSY5Y cells: within the tested concentration range
[3] = target: AChE − induced Aβ1 − 42 aggregation (Homo sapiens, UniProt P22303); assay type: biochemical; conditions: co-incubation with Aβ1-42 and AChE for 24h; 0.1 μM and 1 μM compound
[4] = system: SH − SY5Y cells; assay type: cell-based, human; conditions: 1 μM compound; Aβ1 − 42 20 μM, 48 h
[5] = in vitro; conditions: human

Sequence of AChE − induced Aβ1 − 42 aggregation (P22303 32-614): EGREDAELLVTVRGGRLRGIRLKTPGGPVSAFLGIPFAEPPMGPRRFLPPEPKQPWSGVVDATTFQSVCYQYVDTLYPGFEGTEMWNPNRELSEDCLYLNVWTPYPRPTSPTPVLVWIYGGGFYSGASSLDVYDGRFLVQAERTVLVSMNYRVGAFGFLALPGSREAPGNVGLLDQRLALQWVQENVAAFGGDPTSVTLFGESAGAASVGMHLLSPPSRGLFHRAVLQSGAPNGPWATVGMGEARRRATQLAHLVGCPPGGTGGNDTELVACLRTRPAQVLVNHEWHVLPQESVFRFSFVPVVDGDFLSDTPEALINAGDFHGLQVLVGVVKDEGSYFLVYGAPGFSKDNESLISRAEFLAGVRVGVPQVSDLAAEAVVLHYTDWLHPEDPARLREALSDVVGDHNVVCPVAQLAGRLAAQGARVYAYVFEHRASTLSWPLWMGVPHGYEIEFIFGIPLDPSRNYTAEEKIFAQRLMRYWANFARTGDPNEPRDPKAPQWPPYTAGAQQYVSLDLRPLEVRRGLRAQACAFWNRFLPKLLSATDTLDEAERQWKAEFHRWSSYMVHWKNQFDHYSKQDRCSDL
Sequence of hAChE (P22303 32-614): as above

SMILES	type of AChE inhibition [1]	cytotoxicity in SHSY5Y cells ([2]; 0.1 to 1 μM, 48h incubation)	toxicity towards SHSY5Y cells [2]	AChE − induced Aβ1 − 42 aggregation [3]	cellular recovery against Aβ1 − 42−induced damage [4]	viability at 10 µM [5]
C=CCn1c2cc(OC(=O)CCCCN3CCN(Cc4ccccc4)CC3)ccc2c2ccnc(C)c21 [Compound 13, 9-allyl-1-methyl-9H-pyrido[3,4-b]indol-7-yl 5–(4-benzylpiperazin-1-yl)pentanoate]	mixed − type inhibition	negligible cytotoxicity	weak toxicity	significant reduction in Aβ1 − 42 aggregation	exceptional cellular recovery	> 79%
C=CCn1c2cc(OC(=O)CCCCN3CCN(Cc4ccc(F)cc4)CC3)ccc2c2ccnc(C)c21 [Compound 17d, 9-allyl-1-methyl-9H-pyrido[3,4-b]indol-7-yl 5–(4-(4-fluorobenzyl)piperazin-1-yl)pentanoate]			weak toxicity	significant reduction in Aβ1 − 42 aggregation		> 79%

Reference: PMC10653770 (Journal of Enzyme Inhibition and Medicinal Chemistry, 2023)
